# From BindingDB's records for doi:10.1021/jm00041a023 (Merck Research Laboratories, 1994)
# Target: T1, Gag-Pol polyprotein [588-1027]/[588-1147] (Human immunodeficiency virus 1, UniProt P04585)
# T1 construct: 588-1027; 588-1147
# Experiment: HIV-1 RT Assay
# Conditions: pH 8.2
# Text: The IC50 of reverse transcriptase is the concentration that inhibits 50% of recombinant HIV-1 RT RNA-directed DNA polymerase activity in vitro.
smiles,measurement,value
"O=C1Nc2ccc(Cl)cc2C(C#Cc2cc([N+](=O)[O-])ccn2)(C2CC2)N1 (stereo unspecified) [6-chloro-4-cyclopropyl-4-[2-(4-nitropyridin-2-yl)ethynyl]-1,2,3,4-tetrahydroquinazolin-2-one]",IC50,> 10 µM
